The values below come from patent US8853214B2, “Pyridazine compounds for controlling invertebrate pests” (BASF SE, priority 2010, dated 2014).

This test has as its system Aphis craccivora. Nature of the test: Cowpea aphid (Aphis craccivora) spray test on potted cowpea plants. The class given is in vivo. Particulars: in comparison with untreated controls, population reduction assessed after 24, 72 and 120 hours. The protocol: II.1 Cowpea Aphid (Aphis craccivora)
The active compounds were formulated in 50:50 (vol:vol) acetone:water. The test solution was prepared at the day of use.
Potted cowpea plants colonized with 100-150 aphids of various stages were sprayed after the pest population had been recorded. Population reduction was assessed after 24, 72, and 120 hours.

Bounds are passed on as bounds.

`O=C(Nc1ccnnc1)c1ccco1` [II.31, Furan-2-carboxylic acid pyridazin-4-ylamide] came in with a mortality at 500 ppm of at least 75%.
